For 28 compounds, EC50 and Activity results are on record in ChEMBL document CHEMBL2176888, “Structure-activity relationships in human Toll-like receptor 8-active 2,3-diamino-furo[2,3-c]pyridines” (J Med Chem, 2012).

Format in all cases: functional, cell-based
Test [1] addresses T1, Toll-like receptor 8 (Homo sapiens, UniProt Q9NR97).
T1 sequence (Q9NR97 whole entry): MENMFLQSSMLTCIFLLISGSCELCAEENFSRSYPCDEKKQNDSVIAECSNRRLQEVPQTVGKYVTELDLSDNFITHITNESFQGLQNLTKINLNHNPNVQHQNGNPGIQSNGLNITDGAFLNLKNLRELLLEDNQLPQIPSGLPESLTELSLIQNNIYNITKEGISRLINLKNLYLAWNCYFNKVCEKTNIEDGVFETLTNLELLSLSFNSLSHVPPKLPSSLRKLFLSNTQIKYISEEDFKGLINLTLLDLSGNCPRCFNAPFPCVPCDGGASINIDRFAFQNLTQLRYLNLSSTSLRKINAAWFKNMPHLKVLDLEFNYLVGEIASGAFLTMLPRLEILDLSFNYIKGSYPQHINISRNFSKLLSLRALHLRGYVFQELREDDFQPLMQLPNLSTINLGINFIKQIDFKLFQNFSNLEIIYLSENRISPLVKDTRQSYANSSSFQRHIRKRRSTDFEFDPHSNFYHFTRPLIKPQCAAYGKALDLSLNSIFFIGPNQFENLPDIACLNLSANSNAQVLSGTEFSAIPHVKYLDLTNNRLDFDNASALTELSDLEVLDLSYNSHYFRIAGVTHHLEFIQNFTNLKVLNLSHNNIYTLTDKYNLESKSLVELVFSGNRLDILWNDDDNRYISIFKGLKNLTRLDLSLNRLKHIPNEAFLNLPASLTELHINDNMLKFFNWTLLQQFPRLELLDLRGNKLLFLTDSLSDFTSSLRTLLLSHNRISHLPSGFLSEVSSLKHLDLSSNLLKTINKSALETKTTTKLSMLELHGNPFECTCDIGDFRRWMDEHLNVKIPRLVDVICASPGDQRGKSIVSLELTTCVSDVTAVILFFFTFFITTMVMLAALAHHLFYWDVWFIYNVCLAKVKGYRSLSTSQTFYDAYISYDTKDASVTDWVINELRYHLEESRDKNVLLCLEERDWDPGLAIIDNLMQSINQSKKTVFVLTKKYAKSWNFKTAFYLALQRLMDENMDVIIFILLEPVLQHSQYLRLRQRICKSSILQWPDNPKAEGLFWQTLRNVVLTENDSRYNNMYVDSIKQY
The test can be described thus: Agonist activity at human TLR8 expressed in HEK293 cells assessed as induction of NF-kappaB activity by measuring extracellular secreted alkaline phosphatase by HEK-blue reporter gene assay. The conditions noted are these: for pEC50: read-out: EC50; for EC50: hek293. On the technique in general: In a reporter assay the amount or activity of a reporter protein is the signal.

The target of test [2] is T2, Toll-like receptor 9 (Homo sapiens) (UniProt Q9NR96).
T2 sequence (whole entry): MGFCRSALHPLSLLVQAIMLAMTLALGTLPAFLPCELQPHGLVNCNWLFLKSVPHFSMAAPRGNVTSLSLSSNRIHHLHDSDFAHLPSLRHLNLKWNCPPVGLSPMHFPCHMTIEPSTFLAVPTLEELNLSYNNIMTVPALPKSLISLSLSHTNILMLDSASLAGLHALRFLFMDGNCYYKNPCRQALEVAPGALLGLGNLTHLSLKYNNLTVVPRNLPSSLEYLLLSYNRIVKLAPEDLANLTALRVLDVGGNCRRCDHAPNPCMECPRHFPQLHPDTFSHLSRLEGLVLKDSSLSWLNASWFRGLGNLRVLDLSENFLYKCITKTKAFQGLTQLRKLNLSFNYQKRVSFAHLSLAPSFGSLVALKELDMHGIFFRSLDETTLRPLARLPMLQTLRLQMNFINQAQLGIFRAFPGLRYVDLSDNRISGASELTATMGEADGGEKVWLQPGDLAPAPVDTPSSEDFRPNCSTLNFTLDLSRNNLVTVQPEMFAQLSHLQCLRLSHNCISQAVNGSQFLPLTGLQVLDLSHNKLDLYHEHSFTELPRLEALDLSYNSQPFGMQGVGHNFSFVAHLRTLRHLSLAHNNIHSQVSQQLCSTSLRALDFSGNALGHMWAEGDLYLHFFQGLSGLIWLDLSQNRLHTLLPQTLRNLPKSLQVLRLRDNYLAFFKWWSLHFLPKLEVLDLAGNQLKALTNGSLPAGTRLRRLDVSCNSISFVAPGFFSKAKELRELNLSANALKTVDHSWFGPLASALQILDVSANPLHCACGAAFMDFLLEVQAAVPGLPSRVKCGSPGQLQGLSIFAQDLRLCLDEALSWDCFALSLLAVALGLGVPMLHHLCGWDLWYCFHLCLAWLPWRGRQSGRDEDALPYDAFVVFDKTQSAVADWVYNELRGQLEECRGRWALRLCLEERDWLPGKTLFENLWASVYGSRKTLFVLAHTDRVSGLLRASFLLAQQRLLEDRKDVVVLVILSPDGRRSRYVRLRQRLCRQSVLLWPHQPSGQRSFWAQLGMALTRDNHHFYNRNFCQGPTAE
The test can be described thus: Agonist activity at human TLR9 expressed in HEK293 cells assessed as induction of NF-kappaB activity by measuring extracellular secreted alkaline phosphatase up to 250 uM by HEK-blue reporter gene assay.

Test [3] deals with T3, Toll-like receptor 8 (Homo sapiens) (UniProt Q9NR97).
T3 sequence (whole entry): T1 sequence (Q9NR97 whole entry)
Kind of test: Agonist activity at human TLR8 expressed in HEK293 cells assessed as induction of NF-kappaB activity by measuring extracellular secreted alkaline phosphatase up to 250 uM by HEK-blue reporter gene assay.

The target of test [4] is T4, Toll-like receptor 7 (Homo sapiens) (UniProt Q9NYK1).
T4 sequence (whole entry): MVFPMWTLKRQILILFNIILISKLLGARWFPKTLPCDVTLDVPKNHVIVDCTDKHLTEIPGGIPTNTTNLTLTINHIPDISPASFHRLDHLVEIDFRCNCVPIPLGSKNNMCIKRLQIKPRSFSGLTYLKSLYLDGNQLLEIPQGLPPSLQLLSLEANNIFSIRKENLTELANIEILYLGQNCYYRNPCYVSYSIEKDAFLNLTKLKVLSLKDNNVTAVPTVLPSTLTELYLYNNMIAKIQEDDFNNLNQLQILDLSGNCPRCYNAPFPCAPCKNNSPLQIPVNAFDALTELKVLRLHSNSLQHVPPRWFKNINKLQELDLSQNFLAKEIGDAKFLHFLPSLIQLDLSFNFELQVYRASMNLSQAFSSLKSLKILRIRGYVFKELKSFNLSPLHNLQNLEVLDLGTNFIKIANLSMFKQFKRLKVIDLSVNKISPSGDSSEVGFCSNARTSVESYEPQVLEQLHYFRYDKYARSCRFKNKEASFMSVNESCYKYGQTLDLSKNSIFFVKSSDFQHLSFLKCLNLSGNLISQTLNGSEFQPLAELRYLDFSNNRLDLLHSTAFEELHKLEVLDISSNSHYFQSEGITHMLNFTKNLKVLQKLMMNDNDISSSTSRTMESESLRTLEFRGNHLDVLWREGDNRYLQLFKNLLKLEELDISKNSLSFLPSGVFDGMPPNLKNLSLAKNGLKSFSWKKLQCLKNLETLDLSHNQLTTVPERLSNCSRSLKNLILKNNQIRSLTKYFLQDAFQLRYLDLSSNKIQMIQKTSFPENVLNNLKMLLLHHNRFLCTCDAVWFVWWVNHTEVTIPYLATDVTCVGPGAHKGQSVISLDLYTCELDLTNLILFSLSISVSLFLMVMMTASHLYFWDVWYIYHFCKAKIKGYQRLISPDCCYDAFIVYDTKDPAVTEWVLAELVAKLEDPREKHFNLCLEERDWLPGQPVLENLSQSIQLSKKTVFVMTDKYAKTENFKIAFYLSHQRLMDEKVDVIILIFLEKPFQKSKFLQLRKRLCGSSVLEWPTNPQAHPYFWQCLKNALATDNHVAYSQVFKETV
The test can be described thus: Agonist activity at human TLR7 expressed in HEK293 cells assessed as induction of NF-kappaB activity by measuring extracellular secreted alkaline phosphatase up to 250 uM by HEK-blue reporter gene assay.

Test [5] has as its target Toll-like receptor 5 (Homo sapiens) (UniProt O60602). The test can be described thus: Agonist activity at human TLR5 expressed in HEK293 cells assessed as induction of NF-kappaB activity by measuring extracellular secreted alkaline phosphatase up to 250 uM by HEK-blue reporter gene assay.
Test [6] has as its target Toll-like receptor 4 (Homo sapiens) (UniProt O00206). Kind of test: Agonist activity at human TLR4 expressed in HEK293 cells assessed as induction of NF-kappaB activity by measuring extracellular secreted alkaline phosphatase up to 250 uM by HEK-blue reporter gene assay.
In test [7] the target is Toll-like receptor 3 (Homo sapiens) (UniProt O15455). Kind of test: Agonist activity at human TLR3 expressed in HEK293 cells assessed as induction of NF-kappaB activity by measuring extracellular secreted alkaline phosphatase up to 250 uM by HEK-blue reporter gene assay.
Sequence of Toll-like receptor 3 (Homo sapiens) (O15455 whole entry): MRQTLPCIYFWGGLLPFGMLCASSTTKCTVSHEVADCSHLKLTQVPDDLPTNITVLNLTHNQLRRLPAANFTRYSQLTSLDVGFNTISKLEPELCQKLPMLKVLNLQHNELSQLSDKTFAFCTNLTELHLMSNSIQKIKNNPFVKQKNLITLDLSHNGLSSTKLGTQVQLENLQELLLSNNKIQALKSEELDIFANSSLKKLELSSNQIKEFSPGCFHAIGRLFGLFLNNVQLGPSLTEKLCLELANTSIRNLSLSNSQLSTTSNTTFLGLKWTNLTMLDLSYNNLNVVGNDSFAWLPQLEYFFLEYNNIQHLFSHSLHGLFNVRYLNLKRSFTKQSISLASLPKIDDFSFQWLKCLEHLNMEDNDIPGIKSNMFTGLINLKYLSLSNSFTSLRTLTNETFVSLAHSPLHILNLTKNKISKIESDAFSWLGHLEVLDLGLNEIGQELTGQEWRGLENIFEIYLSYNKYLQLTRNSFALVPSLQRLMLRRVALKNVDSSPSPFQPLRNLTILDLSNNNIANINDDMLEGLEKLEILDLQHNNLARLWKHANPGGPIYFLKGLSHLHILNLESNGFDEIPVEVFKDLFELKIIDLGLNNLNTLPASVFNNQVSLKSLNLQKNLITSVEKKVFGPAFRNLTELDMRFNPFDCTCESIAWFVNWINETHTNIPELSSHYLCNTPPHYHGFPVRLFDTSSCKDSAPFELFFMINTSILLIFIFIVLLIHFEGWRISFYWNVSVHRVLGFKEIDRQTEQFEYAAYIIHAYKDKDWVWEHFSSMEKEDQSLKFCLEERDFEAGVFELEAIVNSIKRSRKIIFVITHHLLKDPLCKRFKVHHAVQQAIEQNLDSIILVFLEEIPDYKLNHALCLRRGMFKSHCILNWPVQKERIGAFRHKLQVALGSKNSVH

Molecules are shown by their SMILES. pEC50: −log10 of the molar value. Calls of active or inactive are those of the source. The rule behind the calls is not given here.

Sequence of Toll-like receptor 4 (Homo sapiens) (O00206 whole entry): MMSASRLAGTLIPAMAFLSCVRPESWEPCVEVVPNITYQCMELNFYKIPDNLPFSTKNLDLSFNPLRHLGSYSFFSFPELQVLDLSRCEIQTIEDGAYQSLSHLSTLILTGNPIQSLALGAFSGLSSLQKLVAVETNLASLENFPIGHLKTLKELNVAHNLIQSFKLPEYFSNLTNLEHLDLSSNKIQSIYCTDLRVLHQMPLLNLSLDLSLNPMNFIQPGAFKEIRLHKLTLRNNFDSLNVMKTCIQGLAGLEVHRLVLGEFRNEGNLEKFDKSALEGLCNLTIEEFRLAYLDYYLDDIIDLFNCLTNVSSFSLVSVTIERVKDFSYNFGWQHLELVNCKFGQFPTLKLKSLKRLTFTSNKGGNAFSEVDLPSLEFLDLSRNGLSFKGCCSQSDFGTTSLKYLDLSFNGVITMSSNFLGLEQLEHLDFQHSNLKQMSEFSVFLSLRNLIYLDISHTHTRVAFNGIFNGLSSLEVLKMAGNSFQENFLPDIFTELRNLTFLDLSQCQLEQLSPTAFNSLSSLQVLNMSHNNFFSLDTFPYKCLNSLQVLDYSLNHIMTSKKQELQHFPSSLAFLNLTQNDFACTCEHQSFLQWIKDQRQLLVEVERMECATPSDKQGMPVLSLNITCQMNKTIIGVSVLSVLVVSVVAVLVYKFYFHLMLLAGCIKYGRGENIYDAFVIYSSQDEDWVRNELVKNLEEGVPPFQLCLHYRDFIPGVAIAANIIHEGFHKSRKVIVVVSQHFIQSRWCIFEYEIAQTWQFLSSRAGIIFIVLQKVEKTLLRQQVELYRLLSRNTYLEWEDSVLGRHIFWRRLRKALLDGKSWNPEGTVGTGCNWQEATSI
Sequence of Toll-like receptor 5 (Homo sapiens) (O60602 whole entry): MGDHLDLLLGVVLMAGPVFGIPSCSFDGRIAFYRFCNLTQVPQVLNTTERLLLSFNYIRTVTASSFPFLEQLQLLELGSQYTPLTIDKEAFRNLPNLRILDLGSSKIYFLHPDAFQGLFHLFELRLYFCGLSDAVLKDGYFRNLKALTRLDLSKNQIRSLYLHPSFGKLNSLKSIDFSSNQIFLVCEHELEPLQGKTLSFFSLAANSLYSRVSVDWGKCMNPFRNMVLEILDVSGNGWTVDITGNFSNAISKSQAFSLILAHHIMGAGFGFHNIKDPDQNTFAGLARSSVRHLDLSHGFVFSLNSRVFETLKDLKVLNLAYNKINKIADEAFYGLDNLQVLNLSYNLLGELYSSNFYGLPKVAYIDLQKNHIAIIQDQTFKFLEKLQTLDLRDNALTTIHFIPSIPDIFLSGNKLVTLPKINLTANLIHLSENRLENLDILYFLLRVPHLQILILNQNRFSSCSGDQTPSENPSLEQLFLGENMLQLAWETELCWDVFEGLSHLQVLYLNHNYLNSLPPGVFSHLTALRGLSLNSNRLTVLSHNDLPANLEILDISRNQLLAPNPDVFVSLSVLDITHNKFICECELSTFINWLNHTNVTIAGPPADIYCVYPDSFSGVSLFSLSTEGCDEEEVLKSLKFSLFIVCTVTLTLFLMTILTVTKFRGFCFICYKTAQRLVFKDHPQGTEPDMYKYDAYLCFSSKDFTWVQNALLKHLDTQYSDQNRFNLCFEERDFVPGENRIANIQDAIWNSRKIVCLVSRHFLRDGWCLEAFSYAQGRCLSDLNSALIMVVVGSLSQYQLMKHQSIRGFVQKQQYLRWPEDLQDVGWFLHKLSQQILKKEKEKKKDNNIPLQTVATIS

Broadly, the pEC50 is −log10 of the EC50, conventionally taken in molar units. Consider `CCCCCNc1oc2c(C)ncc(CO)c2c1Nc1cccc([N+](=O)[O-])c1`, for which the pEC50 in test [1] is 6.07.
`Cc1ncc(CO)c2c(Nc3ccccn3)c(NCCN3CCOCC3)oc12`: in test [1], the EC50 entry is “Not Active”.
Take `Oc1ccccc1-c1nc2ccccn2c1NCc1ccccc1`: the result in test [2], in test [3], in test [4], in test [5], in test [6] and in test [7] was inactive.
As to `CC(C)(C)Nc1c(-c2ccccc2O)nc2ccccn12`, the outcome in test [2], in test [3], in test [4], in test [5], in test [6] and in test [7] was inactive.
As for `Cc1ncc(CO)c2c(Nc3cnccn3)c(NC3CCCCC3)oc12`, in test [1], the negative-log EC50 (pEC50) was 4.98.
`CC(C)(C)Nc1c(-c2ccncc2)nc2ccccn12`: the outcome in test [2], in test [3], in test [4], in test [5], in test [6] and in test [7] was inactive.
In the case of `Cc1ncc(CO)c2c(Nc3ccccn3)c(NC(C)(C)CC(C)(C)C)oc12`, in test [1], the EC50 result is “Not Active”.
As for `CCCCc1nc2c(N)nccn2c1Nc1ccc(OC)cc1`, the outcome in test [2], in test [3], in test [4], in test [5], in test [6] and in test [7] was inactive.
In the case of `COc1ccc(Nc2oc3c(C)ncc(CO)c3c2Nc2ccccn2)cc1`, the EC50 result in test [1] is “Not Active”.
As for `CC(C)(C)Nc1c(-c2ccccc2O)nc2cnccn12`, the outcome in test [2], in test [3], in test [4], in test [5], in test [6] and in test [7] was inactive.
On to `Cc1cccc(Cl)c1Nc1oc2c(C)ncc(CO)c2c1Nc1ccccn1`, for which the EC50 entry in test [1] is given as “Not Active”.
As for `c1ccc(CNc2c(-c3ccccc3)nc3ccccn23)cc1`, the outcome in test [2], in test [3], in test [4], in test [5], in test [6] and in test [7] was inactive.
For `Cc1ncc(CO)c2c(Nc3ccccn3)c(N[C@@H](C)c3ccccc3)oc12`, the negative-log EC50 (pEC50) in test [1] is 5.37.
Regarding `Cc1ncc(CO)c2c(Nc3ccccc3)c(NCc3ccccc3)oc12`, the pEC50 in test [1] was 5.77.
Turning to `CCCCCNc1oc2c(C)ncc(CO)c2c1Nc1cccc(F)c1`, the pEC50 in test [1] is 6.43.
For `Cc1ncc(CO)c2c(Nc3ccccn3)c(NCCCCCCNc3oc4c(C)ncc(CO)c4c3Nc3ccccn3)oc12`, in test [1], the pEC50 was 5.47.
Take `Cc1ncc(CO)c2c(Nc3ccccn3)c(NC(C)C)oc12`: the EC50 result in test [1] is reported as “Not Active”.
Consider `Cc1ncc(CO)c2c(Nc3ccccn3)c(N)oc12`, for which, in test [1], the EC50 entry was “Not Active”.
Consider `Cc1ncc(CO)c2c(Nc3cnccn3)c(NCc3ccccc3)oc12`, for which the pEC50 in test [1] was 5.01.
On the same count and under the same terms, then `Cc1ncc(CO)c2c(Nc3ccccn3)c(NCCC(=O)OC(C)(C)C)oc12`, with 5.12; and `CCCC(C)Nc1oc2c(C)ncc(CO)c2c1Nc1ccccn1` (stereo not drawn), with 5.05.
In the case of `CCOC(=O)CNc1oc2c(C)ncc(CO)c2c1Nc1ccccn1`, the EC50 result in test [1] was “Not Active”.
With `Cc1ncc(CO)c2c(Nc3ccccn3)c(NC(C)(C)C)oc12`, the EC50 entry in test [1] is reported as “Not Active”.
For `Cc1ncc(CO)c2c(Nc3cnccn3)c(NC(C)(C)C)oc12`, in test [1], the EC50 entry was “Not Active”.
Regarding `Cc1ncc(CO)c(-c2nc3ccccn3c2NC2CCCCC2)c1OCc1ccccc1`, in test [1], the EC50 entry is “Not Active”.
Same read-out and setting: then `CCOP(=O)(CNc1oc2c(C)ncc(CO)c2c1Nc1ccccn1)OCC`, with “Not Active”.
Take `CCCCCNc1oc2c(C)ncc(CO)c2c1Nc1ccccc1`: the negative-log EC50 (pEC50) in test [1] was 5.65.
Turning to `Cc1ncc(CO)c2c(Nc3ccccn3)c(NC3CCCCC3)oc12`, the negative logarithm of the EC50 (pEC50) in test [1] was 5.16.
